In patent publication US10526345B2, “Compounds as GPR119 agonists” (Mankind Pharma Ltd., priority 2016, dated 2020):

Biological target: T1, hGPR119 (Homo sapiens, UniProt Q8TDV5)
T1 construct: expressed in transfected cells; host or cells: CHO
T1 sequence (Q8TDV5 1-335): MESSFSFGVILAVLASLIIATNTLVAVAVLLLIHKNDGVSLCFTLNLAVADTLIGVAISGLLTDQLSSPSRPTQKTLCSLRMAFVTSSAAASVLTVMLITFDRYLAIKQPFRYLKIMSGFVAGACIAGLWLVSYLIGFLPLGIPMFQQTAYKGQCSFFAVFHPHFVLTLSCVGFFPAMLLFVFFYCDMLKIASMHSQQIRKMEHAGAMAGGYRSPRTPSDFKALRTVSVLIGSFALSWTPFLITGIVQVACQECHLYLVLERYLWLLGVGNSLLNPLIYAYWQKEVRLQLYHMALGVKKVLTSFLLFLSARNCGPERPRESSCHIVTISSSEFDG
Test: In vitro cyclic AMP assay (Cisbio dynamic 2 HTRF kit) in CHO-hGPR119 cells
Assay type: cell-based
Conditions: 1 h, cAMP, compound at 1 μM, 60 min, read-out: Induction (% induction at 1 μM)
Protocol: cAMP measurements were done using Cisbio dynamic 2 HTRF kit according to the manufacturer's protocol. Briefly, CHO-hGPR119 cells were plated at a cell density of 5000 cells/well/5 μl into a white small volume 384 well plate. The final concentrations of IBMX and DMSO used were 1 mM and 0.5% respectively. Cells were treated with various concentrations of the test compound for 60 min at room temperature. Cells were lysed by buffer containing Anti-cAMP antibody and d2-cAMP reagents and incubated for 1 hour at room temperature. HTRF was measured at 337 nm excitation and emission wavelengths of 665 nm and 620 nm on a microplate reader (Flurostar, BMG Labtech). Graphpad prism software was utilized for EC50 determinations.

Row | SMILES | activation at 1 µM [%]
1 | CC(C)c1noc(N2CCC(Oc3nc4ccc(Oc5ccc(S(C)(=O)=O)cc5)nc4s3)CC2)n1 [Compound 1005, 3-isopropyl-5-(4-((5-(4-(methylsulfonyl)phenoxy)thiazolo[5,4-b]pyridin-2-yl)oxy)piperidin-1-yl)-1,2,4-oxadiazole] | 6
2 | CCCS(=O)(=O)N1CCC(C(C)Oc2nc3ccc(-c4ccc(S(C)(=O)=O)cc4)nc3s2)CC1 (stereo not drawn) [Compound 1115, 5-(4-(methylsulfonyl)phenyl)-2-(1-(1-(propylsulfonyl)piperidin-4-yl)ethoxy)thiazolo[5,4-b]pyridine] | 12
3 | CC(C)c1noc(N2CCC(C(Oc3nc4ccc(-c5ccc(S(C)(=O)=O)cc5)nc4s3)C(F)(F)F)CC2)n1 (stereo not drawn) [Compound 1094, 3-isopropyl-5-(4-(2,2,2-trifluoro-1-((5-(4-(methysulfonyl)phenyl)thiazolo[5,4-b]pyridin-2-yl)oxy)ethyl)piperidin-1-yl)-1,2,4-oxadiazole] | 24
4 | Cc1cc(-c2ccc(S(C)(=O)=O)cc2)nc2sc(OCC3CCN(c4nc(C(C)C)no4)CC3)nc12 [Compound 1038, 3-isopropyl-5-(4-(((7-methyl-5-(4-(methylsulfonyl)phenyl)thiazolo[5,4-b]pyridin-2-yl)oxy)methyl)piperidin-1-yl)-1,2,4-oxadiazole] | 11
5 | CC(C)c1noc(N2CCC(C(C)Oc3nc4ccc(-c5cncs5)nc4s3)CC2)n1 (stereo not drawn) [Compound 1121, 3-isopropyl-5-(4-(1-((5-(thiazol-5-yl)thiazolo[5,4-b]pyridin-2-yl)oxy)ethyl)piperidin-1-yl)-1,2,4-oxadiazole] | 30
6 | CC(C)c1noc(N2CCC(C(C)Oc3nc4ccc(-c5cc[nH]c(=O)c5)nc4s3)CC2)n1 (stereo not drawn) [Compound 1126, 4-(2-(1-(1-(3-isopropyl-1,2,4-oxadiazol-5-yl)piperidin-4-yl)ethoxy)thiazolo[5,4-b]pyridin-5-yl)pyridin-2(1H)-one] | 42
7 | CC(C)c1noc(N2CCC(C(C)Oc3nc4ccc(-c5ccc(S(=O)(=O)C6CC6)cc5)nc4s3)CC2)n1 (stereo not drawn) [Compound 1063, 5-(4-(1-((5-(4-(cyclopropylsulfonyl)phenyl)thiazolo[5,4-b]pyridin-2-yl)oxy)ethyl)piperidin-1-yl)-3-isopropyl-1,2,4-oxadiazole] | 58
8 | CC(C)c1noc(N2CCC(COc3nc4ccc(-c5ccncc5)nc4s3)CC2)n1 [Compound 1083, 3-isopropyl-5-(4-(((5-(pyridin-4-yl)thiazolo[5,4-b]pyridin-2-yl)oxy)methyl)piperidin-1-yl)-1,2,4-oxadiazole] | 14
9 | C[C@H](Oc1nc2ccc(-c3ccc(S(C)(=O)=O)nc3)nc2s1)C1CCN(c2ncc(C(F)(F)F)cn2)CC1 [Compound 1166, 2-((S)-1-(1-(5-(trifluoromethyl)pyrimidin-2-yl)piperidin-4-yl)ethoxy)-5-(6-(methylsulfonyl)pyridin-3-yl)thiazolo[5,4-b]pyridine] | 70
10 | CC(C)c1noc(N2CCC([C@@H](C)Oc3nc4ccc(-c5ccc(S(C)(=O)=O)nc5)nc4s3)C2)n1 (stereo partly drawn) [Compound 1140, 2-((R)-1-(1-(3-isopropyl-1,2,4-oxadiazol-5-yl)pyrrolidin-3-yl)ethoxy)-5-(6-(methylsulfonyl)pyridin-3-yl)thiazolo[5,4-b]pyridine] | 4
11 | COCCS(=O)(=O)c1ccc(-c2ccc3nc(N4CCC(c5nc(C(C)C)no5)CC4)sc3n2)cc1 [Compound 1078, 3-isopropyl-5-(1-(5-(4-((2-methoxyethyl)sulfonyl)phenyl)thiazolo[5,4-b]pyridin-2-yl)piperidin-4-yl)-1,2,4-oxadiazole] | 24
12 | CC(C)c1noc(C2CCN(c3nc4ccc(-c5ccncc5)nc4s3)CC2)n1 [Compound 1077, 3-isopropyl-5-(1-(5-(pyridin-4-yl)thiazolo[5,4-b]pyridin-2-yl)piperidin-4-yl)-1,2,4-oxadiazole] | 12
13 | CC(Oc1nc2ccc(-c3ccc(S(C)(=O)=O)cc3)nc2s1)C1CCN(c2nc(C(F)(F)F)no2)CC1 (stereo not drawn) [Compound 1131, 5-(4-(1-((5-(4-(methylsulfonyl)phenyl)thiazolo[5,4-b]pyridin-2-yl)oxy)ethyl)piperidin-1-yl)-3-(trifluoromethyl)-1,2,4-oxadiazole] | 40
14 | CN(C)C(=O)N1CC=C(c2nc3ccc(-c4ccc(S(C)(=O)=O)cc4)nc3s2)CC1 [Compound 1027, N,N-dimethyl-4-(5-(4-(methylsulfonyl)phenyl)thiazolo[5,4-b]pyridin-2-yl)-5,6-dihydropyridine-1(2H)-carboxamide] | 3
15 | CCc1ccc(N2CCC(C(C)Oc3nc4ccc(-c5ccc(S(C)(=O)=O)cc5)nc4s3)CC2)nc1 (stereo not drawn) [Compound 1087, 2-(1-(1-(5-ethylpyridin-2-yl)piperidine-4-yl)ethoxy)-5-(4-(methylsulfonyl)phenyl)thiazolo[5,4-b]pyridine] | 74

More lines, now with the values ahead:

Row | activation at 1 µM [%] | SMILES
16 | 73 | CCCc1cnc(N2CCC(C(C)Oc3nc4ccc(-c5ccc(S(C)(=O)=O)cc5)nc4s3)CC2)nc1 (stereo not drawn) [Compound 1053, 5-(4-(methyslulfonyl)phenyl)-2-(1-(1-(5-propylpyrimidin-2-yl)piperidin-4-yl)ethoxy)thiazolo[5,4-b]pyridine]
17 | 76 | CCc1noc(N2CCC([C@H](C)Oc3nc4ccc(-c5ccc(S(C)(=O)=O)nc5)nc4s3)CC2)n1 [Compound 1160, 2-((S)-1-(1-(3-ethyl-1,2,4-oxadiazol-5-yl)piperidin-4-yl)ethoxy)-5-(6-(methylsulfonyl)pyridin-3-yl)thiazolo[5,4-b]pyridine]
18 | 82 | CC(C)c1noc(N2CCC(C(C)Oc3nc4ccc(-c5ccnc(F)c5)nc4s3)CC2)n1 (stereo not drawn) [Compound 1081, 5-(4-(1-((5-(2-fluoropyridin-4-yl)thiazolo[5,4-b]pyridin-2-yl)oxy)ethyl)piperidin-1-yl)-3-isopropyl-1,2,4-oxadiazole]
19 | 50 | CC(C)c1noc(N2CCC(C(C)Oc3nc4ccc(-c5ccc(-n6cnnn6)cc5)nc4s3)CC2)n1 (stereo not drawn) [Compound 1079, 5-(4-(1-((5-(4-(1H-tetrazol-1-yl)phenyl)thiazolo[5,4-b]pyridin-2-yl)oxy)ethyl)piperidin-1-yl)-3-isopropyl-1,2,4-oxadiazole]
20 | 63 | COCc1cnc(N2CCC(C(C)Oc3nc4ccc(-c5ccc(S(C)(=O)=O)nc5)nc4s3)CC2)nc1 (stereo not drawn) [Compound 1163, 2-(1-(1-(5-(methoxymethyl)pyrimidin-2-yl)piperidin-4-yl)ethoxy)-5-(6-(methylsulfonyl)pyridin-3-yl)thiazolo[5,4-b]pyridine]
21 | 38 | Cc1nscc1-c1ccc2nc(OC(C)C3CCN(c4nc(C(C)C)no4)CC3)sc2n1 (stereo not drawn) [Compound 1125, 3-isopropyl-5-(4-(1-((5-(3-methylisothiazol-4-yl)thiazolo[5,4-b]pyridin-2-yl)oxy)ethyl)piperidin-1-yl)-1,2,4-oxadiazole]
22 | 69 | CC(C)c1noc(N2CCC(C(C)Oc3nc4ccc(-c5ccc(S(C)(=O)=O)cn5)nc4s3)CC2)n1 (stereo not drawn) [Compound 1161, 2-(1-(1-(3-isopropyl-1,2,4-oxadiazol-5-yl)piperidin-4-yl)ethoxy)-5-(5-(methylsulfonyl)pyridin-2-yl)thiazolo[5,4-b]pyridine]

Same assay, conditions: cAMP

Row | EC50 [nM] | SMILES
23 | 50 to 100 | CCCc1cnc(N2CCC(C(C)Oc3nc4ccc(-c5ccc(S(C)(=O)=O)cc5)nc4s3)CC2)nc1 (stereo not drawn) [Compound 1053, 5-(4-(methyslulfonyl)phenyl)-2-(1-(1-(5-propylpyrimidin-2-yl)piperidin-4-yl)ethoxy)thiazolo[5,4-b]pyridine]
24 | 25 to 50 | CCc1noc(N2CCC([C@H](C)Oc3nc4ccc(-c5ccc(S(C)(=O)=O)nc5)nc4s3)CC2)n1 [Compound 1160, 2-((S)-1-(1-(3-ethyl-1,2,4-oxadiazol-5-yl)piperidin-4-yl)ethoxy)-5-(6-(methylsulfonyl)pyridin-3-yl)thiazolo[5,4-b]pyridine]
